Laboratory results published in patent US20160095843A1, “PYRAZOLOPYRROLIDINE DERIVATIVES AND THEIR USE IN THE TREATMENT OF DISEASE” (NOVARTIS AG, priority 2013, published 2016).

Assays:
[1] = system: MV-4-11 cells; assay: Cell growth inhibition assay (CellTiter-Glo), MV-4-11; format: cell-based; conditions: Homo sapiens, MV4-11
Protocol: (§1) Cell Growth Inhibition Assay
(§2) The human leukemia cell lines MV-4-11, THP-1 and K-562 were employed to characterize the effect of BET inhibitors on cellular proliferation and viability. Cells were obtained from the American Type Culture Collection (ATCC) and cultured at 37° C. in a humidified 5% CO2 incubator in the following media: MV-4-11: DMEM high glucose (Animed #1-26F01-I), 10% FCS (Animed #2-01F26-I), 4 mM L-Glutamine (Animed #5-10K50), 1 mM Sodium Pyruvate (Animed # G03625P), 1× Penicillin-Streptomycin (Animed # F12478P); K-562: Iscove's MEM (Animed #1-28F16-I), 10% FCS (Animed #2-01F26-I), 4 mM L-Glutamine (Animed #5-10K50), 1× Penicillin-Streptomycin (Animed # F12478P); THP-1: RPMI-1640 (Animed #1-41F01-I), 10% FCS (Animed #2-01F26-I), 2 mM L-Glutamine (Animed #5-10K50), 10 mM HEPES (Animed #5-31F100), 1 mM Sodium Pyruvate (Animed # G03625P), 1× Penicillin-Streptomycin (Animed # F12478P). The AML lines MV-4-11 and THP-1 are very sensitive to BET inhibitors and show massive cell death upon BET inhibition (Zuber et al., Nature, 478 (2011), 524-8). Compound-mediated suppression of cell proliferation/viability was assessed by quantification of cellular ATP levels using the CellTiter-Glo (CTG) reagent (Promega). Briefly, cells were seeded in 20 μl fresh medium into 384-well plates, followed by addition of 5 μL medium containing compound dilutions at 5-fold their final intended concentration. Dose-response effects were assessed by 3-fold serial dilutions of the test compound, starting at 10 μM. Following incubation of the cells for 4 days at 37° C. and 5% CO2, the effect of inhibitors on cell viability was quantified following addition of 20 μl CTG and luminescence quantification (integration time: 100 ms) as per vendor manual, using a correspondingly equipped Tecan M200 multi-mode platereader (TECAN, Switzerland). For data analysis, the assay background value determined in wells containing medium, but no cells, was subtracted from all data points. To enable differentiation of cytotoxic from cytostatic compounds, the number of viable cells is assessed relative to that observed at the time of compound addition using a separate cell plate (day 0). The effect of a particular test compound concentration on cell proliferation/viability is expressed as percentage of the background- and day 0-corrected luminescence reading obtained for cells treated with vehicle only (DMSO, 0.1% final concentration), which is set as 100%, whereas that luminescence reading for wells containing medium is set as −100%. Compound concentrations leading to half-maximal (1050) and total growth inhibition (TGI) were determined using standard four parameter curve fitting.

[2] = system: THP-1 cells; assay: Cell growth inhibition assay (CellTiter-Glo), THP-1; format: cell-based; conditions: Homo sapiens
Protocol: as §1, §2

[3] = system: K-562 cells; assay: Cell growth inhibition assay (CellTiter-Glo), K-562; format: cell-based, human; conditions: for GI50: Homo sapiens, K562
Protocol: as §1, §2

## COc1ncc(-n2nc(C)c3c2C(=O)N(c2cc(Cl)c(=O)n(C)c2)C3c2ccc(Cl)cc2)c(OC)n1 (stereo not drawn) [Example 53, 5-(5-chloro-1-methyl-6-oxo-1,6-dihydropyridin-3-yl)-4-(4-chlorophenyl)-1-(2,4-dimethoxypyrimidin-5-yl)-3-methyl-4,5-dihydropyrrolo[3,4-c]pyrazol-6(1H)-one]
[1]
  GI50: 249 nM
[2]
  GI50: 374 nM
[3]
  GI50: 953 nM

## COc1ncc(-n2nc3c(c2C(C)C)C(c2ccc(Cl)cc2)N(c2ccc4onc(C)c4c2)C3=O)c(OC)n1 (stereo not drawn) [Example 54, 4-(4-chlorophenyl)-2-(2,4-dimethoxypyrimidin-5-yl)-3-isopropyl-5-(3-methylbenzo-[d]isoxazol-5-yl)-4,5-dihydropyrrolo[3,4-c]pyrazol-6(2H)-one]
[1]
  GI50: 458 nM
[2]
  GI50: 637 nM
[3]
  GI50: 1530 nM

## COc1ncc(-n2nc3c(c2C)C(c2ccc(Cl)cc2)N(c2cc(Cl)c(=O)n(C)c2)C3=O)c(OC)n1 (stereo not drawn) [Example 55, 5-(5-chloro-1-methyl-6-oxo-1,6-dihydropyridin-3-yl)-4-(4-chlorophenyl)-2-(2,4-dimethoxypyrimidin-5-yl)-3-methyl-4,5-dihydropyrrolo[3,4-c]pyrazol-6(2H)-one]
[1]
  GI50: 89.1 nM
[2]
  GI50: 231 nM
[3]
  GI50: 400 nM

## COc1ncc(-n2nc3c(c2C)C(c2ccc(Cl)cc2)N(c2cc(C)c(=O)n(C)c2)C3=O)c(OC)n1 (stereo not drawn) [Example 56, 4-(4-chlorophenyl)-2-(2,4-dimethoxypyrimidin-5-yl)-5-(1,5-dimethyl-6-oxo-1,6-dihydropyridin-3-yl)-3-methyl-4,5-dihydropyrrolo[3,4-c]pyrazol-6(2H)-one]
[1]
  GI50: 57.4 nM
[2]
  GI50: 70.2 nM
[3]
  GI50: 265 nM

## Cc1nn(C)c2c1C(c1ccc(Cl)cc1)N(c1cc(C)c(=O)n(C)c1)C2=O (stereo not drawn) [Example 57, 4-(4-chlorophenyl)-5-(1,5-dimethyl-6-oxo-1,6-dihydropyridin-3-yl)-1,3-dimethyl-4,5-dihydropyrrolo-[3,4-c]pyrazol-6(1H)-one]
[1]
  GI50: 69.5 nM
[2]
  GI50: 117 nM
[3]
  GI50: 480 nM

## Cc1nn(C)c2c1C(c1ccc(Cl)cc1)N(c1cc(Cl)c(=O)n(C)c1)C2=O (stereo not drawn) [Example 58, 5-(5-chloro-1-methyl-6-oxo-1,6-dihydropyridin-3-yl)-4-(4-chlorophenyl)-1,3-dimethyl-4,5-dihydropyrrolo[3,4-c]pyrazol-6(1H)-one]
[1]
  GI50: 94.4 nM
[2]
  GI50: 189 nM
[3]
  GI50: 1140 nM

## COc1nccc(-n2nc(C)c3c2C(=O)N(c2cc(C)c(=O)n(C)c2)C3c2ccc(Cl)cc2)n1 (stereo not drawn) [Example 59, 4-(4-chlorophenyl)-5-(1,5-dimethyl-6-oxo-1,6-dihydropyridin-3-yl)-1-(2-methoxypyrimidin-4-yl)-3-methyl-4,5-dihydropyrrolo[3,4-c]pyrazol-6(1H)-one]
[1]
  GI50: 220 nM
[2]
  GI50: 317 nM
[3]
  GI50: 1250 nM

## CCc1nn(-c2cnc(OC)nc2OC)c2c1C(c1ccc(Cl)cc1)N(c1cc(C)c(=O)n(C)c1)C2=O (stereo not drawn) [Example 60, 4-(4-chlorophenyl)-1-(2,4-dimethoxypyrimidin-5-yl)-5-(1,5-dimethyl-6-oxo-1,6-dihydropyridin-3-yl)-3-ethyl-4,5-dihydropyrrolo[3,4-c]pyrazol-6(1H)-one]
[1]
  GI50: 86.9 nM
[2]
  GI50: 166 nM
[3]
  GI50: 456 nM

## COc1ncc(-n2nc3c(c2C(C)C)[C@@H](c2ccc(Cl)cc2)N(c2cc(C)c4onc(C)c4c2)C3=O)c(OC)n1 [Example 62, (R)-4-(4-chlorophenyl)-2-(2,4-dimethoxypyrimidin-5-yl)-5-(3,7-dimethylbenzo[d]-isoxazol-5-yl)-3-isopropyl-4,5-dihydropyrrolo[3,4-c]pyrazol-6(2H)-one]
[1]
  GI50: 58.4 nM
[2]
  GI50: 97.7 nM
[3]
  IC (TGI): >10 µM
  GI50: 316 nM

## Cc1nn(C(C)C)c2c1C(c1ccc(Cl)cc1)N(c1cc(C)c(=O)n(C)c1)C2=O (stereo not drawn) [Example 63, 4-(4-chlorophenyl)-5-(1,5-dimethyl-6-oxo-1,6-dihydropyridin-3-yl)-1-isopropyl-3-methyl-4,5-dihydropyrrolo[3,4-c]pyrazol-6(1H)-one]
[1]
  GI50: 25.8 nM
[2]
  GI50: 61.9 nM
[3]
  IC (TGI): >10 µM
  GI50: 314 nM

## Cc1cc(N2C(=O)c3nn(C(C)C)c(C)c3C2c2ccc(Cl)cc2)cn(C)c1=O (stereo not drawn) [Example 64, 4-(4-chlorophenyl)-5-(1,5-dimethyl-6-oxo-1,6-dihydropyridin-3-yl)-2-isopropyl-3-methyl-4,5-dihydropyrrolo-[3,4-c]pyrazol-6(2H)-one]
[1]
  GI50: 27.6 nM
[2]
  GI50: 64.8 nM
[3]
  GI50: 292 nM

## Cc1c2c(nn1C(C)C)C(=O)N(c1cc(Cl)c(=O)n(C)c1)C2c1ccc(Cl)cc1 (stereo not drawn) [Example 65, 5-(5-chloro-1-methyl-6-oxo-1,6-dihydropyridin-3-yl)-4-(4-chlorophenyl)-2-isopropyl-3-methyl-4,5-dihydropyrrolo-[3,4-c]pyrazol-6(2H)-one]
[1]
  GI50: 67.5 nM
[2]
  GI50: 121 nM
[3]
  GI50: 554 nM

## Cc1nn(C(C)C)c2c1C(c1ccc(Cl)cc1)N(c1cc(Cl)c(=O)n(C)c1)C2=O (stereo not drawn) [Example 66, 5-(5-chloro-1-methyl-6-oxo-1,6-dihydropyridin-3-yl)-4-(4-chlorophenyl)-1-isopropyl-3-methyl-4,5-dihydropyrrolo-[3,4-c]pyrazol-6(1H)-one]
[1]
  GI50: 67.7 nM
[2]
  GI50: 126 nM
[3]
  GI50: 908 nM

## COc1ncc(-n2nc3c(c2C(C)C)C(c2ccc(Cl)cc2)N(c2cc(C)c4nnc(C)n4c2)C3=O)c(OC)n1 (stereo not drawn) [Example 67, 4-(4-chlorophenyl)-2-(2,4-dimethoxypyrimidin-5-yl)-5-(3,8-dimethyl-[1,2,4]triazolo-[4,3-a]pyridin-6-yl)-3-isopropyl-4,5-dihydropyrrolo-[3,4-c]pyrazol-6(2H)-one]
[1]
  GI50: 8.55 nM
[2]
  GI50: 20.3 nM
[3]
  GI50: 47.4 nM

## CCc1c2c(nn1C1CC1)C(=O)N(c1cc(C)c(=O)n(C)c1)C2c1ccc(Cl)cc1 (stereo not drawn) [Example 68, 4-(4-chlorophenyl)-2-cyclopropyl-5-(1,5-dimethyl-6-oxo-1,6-dihydropyridin-3-yl)-3-ethyl-4,5-dihydropyrrolo-[3,4-c]pyrazol-6(2H)-one]
[1]
  GI50: 30.1 nM
[2]
  GI50: 47.7 nM
[3]
  GI50: 157 nM

## CCc1nn(C2CC2)c2c1C(c1ccc(Cl)cc1)N(c1cc(C)c(=O)n(C)c1)C2=O (stereo not drawn) [Example 69, 4-(4-chlorophenyl)-1-cyclopropyl-5-(1,5-dimethyl-6-oxo-1,6-dihydropyridin-3-yl)-3-ethyl-4,5-dihydropyrrolo-[3,4-c]pyrazol-6(1H)-one]
[1]
  GI50: 27.4 nM
[2]
  GI50: 44.2 nM
[3]
  GI50: 135 nM

## CCc1nn(C2CC2)c2c1C(c1ccc(Cl)cc1)N(c1cc(C)c3nnc(C)n3c1)C2=O (stereo not drawn) [Example 70, 4-(4-chlorophenyl)-1-cyclopropyl-5-(3,8-dimethyl-[1,2,4]triazolo[4,3-a]pyridin-6-yl)-3-ethyl-4,5-dihydropyrrolo-[3,4-c]pyrazol-6(1H)-one]
[1]
  GI50: 9.02 nM
[2]
  GI50: 12.2 nM
[3]
  GI50: 60.8 nM

## COc1ncccc1-n1nc(C)c2c1C(=O)N(c1cc(C)c(=O)n(C)c1)C2c1ccc(Cl)cc1 (stereo not drawn) [Example 71, 4-(4-chlorophenyl)-5-(1,5-dimethyl-6-oxo-1,6-dihydropyridin-3-yl)-1-(2-methoxypyridin-3-yl)-3-methyl-4,5-dihydropyrrolo-[3,4-c]pyrazol-6(1H)-one]
[1]
  GI50: 66.6 nM
[2]
  GI50: 75.6 nM
[3]
  IC (TGI): >10 µM
  GI50: 345 nM

## COc1ncccc1-n1nc(C)c2c1C(=O)N(c1cc(Cl)c(=O)n(C)c1)C2c1ccc(Cl)cc1 (stereo not drawn) [Example 72, 5-(5-chloro-1-methyl-6-oxo-1,6-dihydropyridin-3-yl)-4-(4-chlorophenyl)-1-(2-methoxypyridin-3-yl)-3-methyl-4,5-dihydropyrrolo[3,4-c]pyrazol-6(1H)-one]
[1]
  GI50: 100 nM
[2]
  GI50: 223 nM
[3]
  GI50: 766 nM

## Cc1cc(N2C(=O)c3nn(C)c(O)c3C2c2ccc(Cl)cc2)cn(C)c1=O (stereo not drawn) [Example 73, 4-(4-chlorophenyl)-5-(1,5-dimethyl-6-oxo-1,6-dihydropyridin-3-yl)-3-hydroxy-2-methyl-4,5-dihydropyrrolo[3,4-c]pyrazol-6(2H)-one]
[1]
  GI50: 3020 nM
[2]
  GI50: > 10000 nM
[3]
  GI50: > 10000 nM
